Experimental data: patent US8415469B2, “Compounds and methods for kinase modulation, and indications therefor” (Plexxikon Inc., priority 2005, dated 2013)

What was measured:
Format in all cases: biochemical
Kdr = molecular target: T1, Kdr (Homo sapiens, UniProt P35968); assay: Z'-Lyte FRET kinase assay (Invitrogen), Kdr; conditions: read-out: IC50, activity toward kinase Kdr
T1 construct: purchased Invitrogen (assay run by Invitrogen)

c-Raf-1 = molecular target: T2, c-Raf-1 (Homo sapiens, UniProt P04049); assay: AlphaScreen kinase assay, c-Raf-1; conditions: read-out: IC50, activity toward kinase c-Raf-1
T2 construct: purchased Upstate Biotechnology
T2 sequence (P04049 whole entry): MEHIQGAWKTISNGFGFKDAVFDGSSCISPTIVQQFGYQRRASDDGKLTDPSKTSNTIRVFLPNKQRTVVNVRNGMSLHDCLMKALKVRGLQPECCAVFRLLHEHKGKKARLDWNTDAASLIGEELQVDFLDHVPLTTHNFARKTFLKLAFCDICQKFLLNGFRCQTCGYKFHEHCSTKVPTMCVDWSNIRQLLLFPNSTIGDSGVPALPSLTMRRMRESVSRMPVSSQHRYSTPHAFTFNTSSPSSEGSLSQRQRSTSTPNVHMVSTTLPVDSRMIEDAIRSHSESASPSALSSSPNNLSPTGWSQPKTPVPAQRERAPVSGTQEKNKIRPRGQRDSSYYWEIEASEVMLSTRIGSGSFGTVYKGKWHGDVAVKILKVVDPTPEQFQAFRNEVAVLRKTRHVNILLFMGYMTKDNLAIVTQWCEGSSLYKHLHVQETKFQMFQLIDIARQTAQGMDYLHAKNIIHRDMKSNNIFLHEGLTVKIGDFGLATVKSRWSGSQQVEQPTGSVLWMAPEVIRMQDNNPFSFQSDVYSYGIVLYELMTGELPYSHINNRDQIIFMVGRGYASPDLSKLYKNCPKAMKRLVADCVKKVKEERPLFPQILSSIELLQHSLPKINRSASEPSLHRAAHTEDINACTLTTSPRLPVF

B-Raf V600E = molecular target: T3, B-Raf V600E (Homo sapiens, UniProt P15056, V600E); assay: AlphaScreen kinase assay, B-Raf V600E; conditions: read-out: IC50, activity toward kinase B-Raf V600E
T3 construct: P4254. pFastBacBD-CDC37 BRAF D437-K722-X, V600E; His6 with pFastBac HT leader (TEV site) (N); made in house; host or cells: Sf9 (baculovirus; chaperone CDC37 co-expressed)
T3 sequence (P15056 with tags, fused parts or gaps V600E): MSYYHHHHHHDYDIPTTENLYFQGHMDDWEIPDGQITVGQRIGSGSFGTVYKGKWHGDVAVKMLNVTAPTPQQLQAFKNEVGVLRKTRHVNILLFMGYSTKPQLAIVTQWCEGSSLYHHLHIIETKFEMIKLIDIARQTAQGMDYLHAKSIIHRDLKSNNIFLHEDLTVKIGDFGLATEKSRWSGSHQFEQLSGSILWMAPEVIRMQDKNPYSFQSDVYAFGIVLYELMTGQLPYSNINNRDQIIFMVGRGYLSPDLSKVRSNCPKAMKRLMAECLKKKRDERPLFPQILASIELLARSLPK

B-Raf = molecular target: T4, B-Raf (Homo sapiens, UniProt P15056); assay: AlphaScreen kinase assay, B-Raf; conditions: read-out: IC50, activity toward kinase B-Raf
T4 construct: purchased Upstate Biotechnology
T4 sequence (P15056 whole entry): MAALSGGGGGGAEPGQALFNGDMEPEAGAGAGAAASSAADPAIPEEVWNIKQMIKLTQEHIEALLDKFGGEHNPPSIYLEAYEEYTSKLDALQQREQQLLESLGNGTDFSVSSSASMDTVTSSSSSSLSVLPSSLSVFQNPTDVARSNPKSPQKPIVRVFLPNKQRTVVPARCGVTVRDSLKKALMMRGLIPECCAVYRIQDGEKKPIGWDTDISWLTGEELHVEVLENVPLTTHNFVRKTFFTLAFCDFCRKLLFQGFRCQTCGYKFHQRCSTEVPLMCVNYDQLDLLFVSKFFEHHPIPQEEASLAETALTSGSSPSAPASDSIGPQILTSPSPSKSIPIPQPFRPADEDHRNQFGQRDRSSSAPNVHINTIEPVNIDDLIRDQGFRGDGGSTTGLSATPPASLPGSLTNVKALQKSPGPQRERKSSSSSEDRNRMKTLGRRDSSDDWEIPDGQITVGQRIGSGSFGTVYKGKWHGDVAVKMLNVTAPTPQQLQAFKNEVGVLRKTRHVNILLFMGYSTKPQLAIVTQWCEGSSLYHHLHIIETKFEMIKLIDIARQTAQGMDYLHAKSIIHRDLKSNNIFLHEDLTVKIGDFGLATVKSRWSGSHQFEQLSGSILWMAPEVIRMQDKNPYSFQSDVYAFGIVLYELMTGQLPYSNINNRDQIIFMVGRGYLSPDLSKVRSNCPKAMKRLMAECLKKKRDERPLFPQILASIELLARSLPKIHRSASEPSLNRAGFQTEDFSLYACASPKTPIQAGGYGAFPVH

Ret = molecular target: T5, Ret (Homo sapiens, UniProt P07949); assay: AlphaScreen kinase assay, Ret; conditions: read-out: IC50, activity toward kinase Ret
T5 construct: P1378.pET-SF BI-PTP RET H661-R1012 HIS; made in house
T5 sequence (P07949 with tags, fused parts or gaps): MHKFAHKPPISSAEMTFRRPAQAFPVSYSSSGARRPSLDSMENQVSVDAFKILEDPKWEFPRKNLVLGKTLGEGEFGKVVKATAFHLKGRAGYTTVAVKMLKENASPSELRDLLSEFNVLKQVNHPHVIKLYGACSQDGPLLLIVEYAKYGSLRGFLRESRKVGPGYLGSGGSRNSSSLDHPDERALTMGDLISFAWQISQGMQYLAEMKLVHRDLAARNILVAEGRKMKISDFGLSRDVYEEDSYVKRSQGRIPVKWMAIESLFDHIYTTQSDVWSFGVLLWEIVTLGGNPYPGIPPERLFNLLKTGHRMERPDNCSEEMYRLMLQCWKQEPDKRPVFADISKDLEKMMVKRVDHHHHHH

Flt1 = molecular target: T6, Flt1 (Homo sapiens, UniProt P17948); assay: AlphaScreen kinase assay, Flt1; conditions: read-out: IC50, activity toward kinase Flt1
T6 construct: P1826.pETN6 BI-PTP FLT1 M799-D1165-X WT; His6 (N); made in house; host or cells: E. coli (PTP1B co-expressed)
T6 sequence (P17948 with tags, fused parts or gaps): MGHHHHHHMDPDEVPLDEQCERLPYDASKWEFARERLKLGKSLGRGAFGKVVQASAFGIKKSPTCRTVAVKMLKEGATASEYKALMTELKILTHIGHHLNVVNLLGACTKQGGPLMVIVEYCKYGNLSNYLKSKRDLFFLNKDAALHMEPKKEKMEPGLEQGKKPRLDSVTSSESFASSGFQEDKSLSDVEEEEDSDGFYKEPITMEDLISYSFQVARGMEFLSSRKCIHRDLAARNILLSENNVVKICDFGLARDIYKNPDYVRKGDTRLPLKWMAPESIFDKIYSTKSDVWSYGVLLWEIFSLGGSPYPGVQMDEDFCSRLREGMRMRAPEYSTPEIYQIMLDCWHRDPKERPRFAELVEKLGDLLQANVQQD

FGFR1 = molecular target: T7, FGFR1 (Homo sapiens, UniProt P11362, C488A/C584S); assay: AlphaScreen kinase assay, FGFR1; conditions: read-out: IC50, activity toward kinase FGFR
T7 construct: P1351.pET N6 BI-PTP FGFR A458-E765-X C488A, C584S; made in house; host or cells: E. coli (PTP1B co-expressed)
T7 sequence (P11362 458-765 C488A/C584S): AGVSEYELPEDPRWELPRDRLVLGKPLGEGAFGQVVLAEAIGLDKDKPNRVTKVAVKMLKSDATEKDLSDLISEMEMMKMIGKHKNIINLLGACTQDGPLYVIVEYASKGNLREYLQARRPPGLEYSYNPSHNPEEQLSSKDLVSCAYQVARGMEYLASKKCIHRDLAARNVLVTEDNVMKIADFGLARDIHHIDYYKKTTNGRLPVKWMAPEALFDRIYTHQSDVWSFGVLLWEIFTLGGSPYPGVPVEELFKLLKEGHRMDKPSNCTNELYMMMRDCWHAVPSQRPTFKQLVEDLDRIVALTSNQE

Kit = molecular target: T8, Kit (Homo sapiens, UniProt P10721); assay: AlphaScreen kinase assay, Kit; conditions: read-out: IC50, activity toward kinase Kit
T8 construct: P1332.N6 BI PTP KIT M552-K948-X COD; His6 (N); made in house; host or cells: E. coli (PTP1B co-expressed)
T8 sequence (P10721 with tags, fused parts or gaps): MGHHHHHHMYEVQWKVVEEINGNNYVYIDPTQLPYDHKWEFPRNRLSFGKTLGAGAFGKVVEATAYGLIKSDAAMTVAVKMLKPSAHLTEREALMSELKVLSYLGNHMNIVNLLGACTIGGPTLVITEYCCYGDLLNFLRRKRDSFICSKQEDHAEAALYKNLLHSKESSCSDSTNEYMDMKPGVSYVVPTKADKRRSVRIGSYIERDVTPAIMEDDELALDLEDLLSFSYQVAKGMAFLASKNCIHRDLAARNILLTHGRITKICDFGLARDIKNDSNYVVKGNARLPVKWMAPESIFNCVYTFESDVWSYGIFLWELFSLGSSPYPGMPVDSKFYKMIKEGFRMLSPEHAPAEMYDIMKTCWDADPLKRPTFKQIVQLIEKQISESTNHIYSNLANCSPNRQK

Fms = molecular target: T9, Fms (Homo sapiens, UniProt P07333); assay: AlphaScreen kinase assay, Fms; conditions: read-out: IC50, activity toward kinase Fms
T9 construct: purchased Upstate Biotechnology
T9 sequence (P07333 20-972): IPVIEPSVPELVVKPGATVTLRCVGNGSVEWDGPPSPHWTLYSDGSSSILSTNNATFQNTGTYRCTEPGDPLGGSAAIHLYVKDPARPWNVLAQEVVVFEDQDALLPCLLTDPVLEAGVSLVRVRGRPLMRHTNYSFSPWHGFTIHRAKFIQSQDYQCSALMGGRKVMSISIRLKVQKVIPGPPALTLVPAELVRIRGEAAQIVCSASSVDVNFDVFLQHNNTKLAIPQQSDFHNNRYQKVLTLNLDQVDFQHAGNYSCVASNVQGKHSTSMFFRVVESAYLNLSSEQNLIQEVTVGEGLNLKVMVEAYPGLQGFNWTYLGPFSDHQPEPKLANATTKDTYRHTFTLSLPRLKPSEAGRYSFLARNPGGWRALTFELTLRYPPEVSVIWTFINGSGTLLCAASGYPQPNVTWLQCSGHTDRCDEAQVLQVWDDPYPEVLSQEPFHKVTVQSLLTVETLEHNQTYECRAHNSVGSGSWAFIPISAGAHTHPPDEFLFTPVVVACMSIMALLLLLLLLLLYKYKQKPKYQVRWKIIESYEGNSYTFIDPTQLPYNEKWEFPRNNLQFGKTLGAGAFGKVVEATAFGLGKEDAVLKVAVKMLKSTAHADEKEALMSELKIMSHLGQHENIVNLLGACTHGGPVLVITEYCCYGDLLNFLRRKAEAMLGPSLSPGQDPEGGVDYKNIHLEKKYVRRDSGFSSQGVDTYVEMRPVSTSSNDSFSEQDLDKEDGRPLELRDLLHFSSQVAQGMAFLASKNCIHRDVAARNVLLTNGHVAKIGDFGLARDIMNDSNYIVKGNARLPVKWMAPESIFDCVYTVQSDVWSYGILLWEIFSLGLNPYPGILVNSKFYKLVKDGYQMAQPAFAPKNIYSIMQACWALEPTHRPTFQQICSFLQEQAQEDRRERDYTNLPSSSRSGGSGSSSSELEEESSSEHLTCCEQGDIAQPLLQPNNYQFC

T1 sequence (P35968 20-1356): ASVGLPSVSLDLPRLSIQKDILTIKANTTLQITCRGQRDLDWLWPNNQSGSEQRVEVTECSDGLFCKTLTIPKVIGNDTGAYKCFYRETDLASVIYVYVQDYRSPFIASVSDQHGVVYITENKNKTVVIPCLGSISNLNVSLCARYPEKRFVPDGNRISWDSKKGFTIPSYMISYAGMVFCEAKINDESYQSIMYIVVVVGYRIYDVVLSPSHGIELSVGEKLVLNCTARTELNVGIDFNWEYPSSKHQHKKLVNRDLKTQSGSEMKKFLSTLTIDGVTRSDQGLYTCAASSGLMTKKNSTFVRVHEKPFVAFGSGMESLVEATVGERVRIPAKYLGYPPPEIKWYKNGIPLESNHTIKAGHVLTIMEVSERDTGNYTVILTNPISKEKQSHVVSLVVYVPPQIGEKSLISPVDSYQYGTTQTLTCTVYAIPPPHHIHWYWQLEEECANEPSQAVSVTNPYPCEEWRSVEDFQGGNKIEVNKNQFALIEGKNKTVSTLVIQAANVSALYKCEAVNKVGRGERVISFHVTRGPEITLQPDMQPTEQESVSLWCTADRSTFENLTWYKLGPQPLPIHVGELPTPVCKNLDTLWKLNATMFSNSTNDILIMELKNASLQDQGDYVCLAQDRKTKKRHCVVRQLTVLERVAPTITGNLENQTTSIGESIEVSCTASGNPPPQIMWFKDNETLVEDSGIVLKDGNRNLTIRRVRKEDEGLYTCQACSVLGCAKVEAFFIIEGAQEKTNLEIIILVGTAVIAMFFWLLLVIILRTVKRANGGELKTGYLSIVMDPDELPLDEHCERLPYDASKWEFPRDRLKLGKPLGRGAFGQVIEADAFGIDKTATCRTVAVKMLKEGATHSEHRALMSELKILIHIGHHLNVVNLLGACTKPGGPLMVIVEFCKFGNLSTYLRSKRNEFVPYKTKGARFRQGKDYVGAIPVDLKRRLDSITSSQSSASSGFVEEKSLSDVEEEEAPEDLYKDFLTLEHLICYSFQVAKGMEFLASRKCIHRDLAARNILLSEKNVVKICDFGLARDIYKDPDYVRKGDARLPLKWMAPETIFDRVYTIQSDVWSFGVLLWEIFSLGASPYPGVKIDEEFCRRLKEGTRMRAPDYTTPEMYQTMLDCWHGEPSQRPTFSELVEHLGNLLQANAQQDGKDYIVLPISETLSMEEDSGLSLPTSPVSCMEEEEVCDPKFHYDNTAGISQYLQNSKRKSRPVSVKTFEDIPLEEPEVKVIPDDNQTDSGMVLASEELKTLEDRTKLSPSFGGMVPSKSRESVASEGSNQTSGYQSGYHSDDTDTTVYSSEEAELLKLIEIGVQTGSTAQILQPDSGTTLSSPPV

| IC50 (Kdr) [µM] | IC50 (c-Raf-1) [µM] | IC50 (B-Raf V600E) [µM] | IC50 (B-Raf) [µM] | IC50 (Ret) [µM] | IC50 (Flt1) [µM] | IC50 (FGFR1) [µM] | IC50 (Kit) [µM] | IC50 (Fms) [µM] | SMILES |
| --- | --- | --- | --- | --- | --- | --- | --- | --- | --- |
| ≤ 10 |  |  |  |  |  |  |  |  | O=[N+]([O-])c1cccc(-c2ccnc3[nH]ccc23)c1 [Compound P-0197] |
|  | ≤ 10 | ≤ 10 | ≤ 10 | ≤ 10 |  |  |  |  | COC(c1ccc(NCc2ccc(Cl)cc2)nc1)c1c[nH]c2ncc(-c3cccnc3)cc12 (stereo not shown) [Compound P-0939] |
| ≤ 10 |  |  |  |  |  |  |  |  | Cc1ccccc1-c1c[nH]c2ncccc12 [Compound P-0482] |
| ≤ 10 |  |  |  |  | ≤ 10 |  |  |  | c1coc(-c2c[nH]c3ncccc23)c1 [Compound P-0455] |
| ≤ 10 |  |  |  |  |  | ≤ 10 | ≤ 10 |  | COc1cc(OC)cc(C(=O)c2c[nH]c3ncccc23)c1 [Compound P-0473] |
| ≤ 10 |  |  |  |  |  |  |  |  | Cc1cc(C(=O)c2c[nH]c3nccc(-c4cccc(NS(C)(=O)=O)c4)c23)n(C)n1 [Compound P-0234] |
|  | ≤ 10 | ≤ 10 | ≤ 10 |  | ≤ 10 | ≤ 10 | ≤ 10 | ≤ 10 | O=C(c1c(Cl)ccc(OCC(F)(F)F)c1F)c1c[nH]c2ncc(-c3cccnc3)cc12 [Compound P-1395, [6-Chloro-2-fluoro-3-(2,2,2-trifluoro-ethoxy)-phenyl]-(5-pyridin-3-yl-1H-pyrrolo[2,3-b]pyridin-3-yl)-methanone] |
| ≤ 10 |  |  |  | ≤ 10 |  | ≤ 10 |  |  | COc1cccc(Cc2c[nH]c3nccc(Br)c23)n1 [Compound P-0339] |
| ≤ 10 |  |  |  |  |  | ≤ 10 | ≤ 10 |  | COc1cccc(C(=O)c2c[nH]c3ncccc23)c1 [Compound P-0168] |
| ≤ 10 |  |  |  | ≤ 10 |  | ≤ 10 |  |  | COc1ccc(Cc2c[nH]c3nccc(-c4ccsc4)c23)cn1 [Compound P-0289] |
|  | ≤ 10 | ≤ 10 | ≤ 10 |  | ≤ 10 | ≤ 10 | ≤ 10 | ≤ 10 | COc1cnc2[nH]cc(C(=O)c3c(F)ccc(NS(=O)(=O)c4cccc(F)c4)c3F)c2c1 [Compound P-1581, N-[2,4-Difluoro-3-(5-methoxy-1H-pyrrolo[2,3-b]pyridine-3-carbonyl)-phenyl]-3-fluoro-benzenesulfonamide] |
| ≤ 10 |  | ≤ 10 |  |  | ≤ 10 | ≤ 10 |  | ≤ 10 | COc1ccc(CNc2ccc(Cc3c[nH]c4ncccc34)cn2)cc1 [Compound P-0274] |
| ≤ 10 |  | ≤ 10 |  |  | ≤ 10 |  |  |  | O=[N+]([O-])c1cc(S(=O)(=O)NCc2c[nH]c3ncccc23)sc1Cl [Compound P-0777] |
| ≤ 10 |  | ≤ 10 |  |  |  | ≤ 10 |  |  | COc1cccc(C(O)c2c[nH]c3ncc(Br)cc23)c1F (stereo not shown) [Compound P-0242] |
|  | ≤ 10 | ≤ 10 | ≤ 10 |  | ≤ 10 | ≤ 10 | ≤ 10 | ≤ 10 | COc1cnc2[nH]cc(C(=O)c3c(F)ccc(NS(=O)(=O)c4ccc(C(F)(F)F)cc4)c3F)c2c1 [Compound P-1542, N-[2,4-Difluoro-3-(5-methoxy-1H-pyrrolo[2,3-b]pyridine-3-carbonyl)-phenyl]-4-trifluoromethyl-benzenesulfonamide] |
| ≤ 10 |  |  |  |  |  |  |  |  | Brc1ccnc2[nH]ccc12 [Compound P-0458] |
| ≤ 10 |  |  |  |  | ≤ 10 | ≤ 10 | ≤ 10 |  | c1cc(Cc2c[nH]c3ncccc23)cc(OCCOC2CCCCO2)c1 (stereo not shown) [Compound P-0326] |

| IC50 (Kdr) [µM] | IC50 (c-Raf-1) [µM] | IC50 (B-Raf V600E) [µM] | IC50 (B-Raf) [µM] | IC50 (Ret) [µM] | IC50 (Flt1) [µM] | IC50 (FGFR1) [µM] | IC50 (Kit) [µM] | IC50 (Fms) [µM] | SMILES |
| --- | --- | --- | --- | --- | --- | --- | --- | --- | --- |
|  | ≤ 10 | ≤ 10 | ≤ 10 |  | ≤ 10 | ≤ 10 | ≤ 10 | ≤ 10 | CCCS(=O)(=O)Nc1ccc(F)c(C(=O)c2c[nH]c3ncc(N4CCN(C)CC4)cc23)c1F [Compound P-1246, propane-1-sulfonic acid {2,4-difluoro-3-[5-(4-methyl-piperazin-1-yl)-1H-pyrrolo[2,3-b]pyridine-3-carbonyl]-phenyl}-amide] |
|  | ≤ 10 | ≤ 10 | ≤ 10 |  | ≤ 10 | ≤ 10 |  |  | CS(=O)(=O)Nc1ccc(Cl)c(C(=O)c2c[nH]c3ncc(Br)cc23)c1F [Compound P-0868, N-[3-(5-Bromo-1H-pyrrolo[2,3-b]pyridine-3-carbonyl)-4-chloro-2-fluoro-phenyl]-methanesulfonamide] |
|  | ≤ 10 | ≤ 10 | ≤ 10 | ≤ 10 |  |  |  |  | COC(c1ccc(NCc2ccc(Cl)cc2)nc1)c1c[nH]c2ncc(-c3cccc(S(C)(=O)=O)c3)cc12 (stereo not shown) [Compound P-0998] |
| ≤ 10 |  |  |  |  |  | ≤ 10 |  |  | CCc1cnc2[nH]cc(C(=O)c3cccc(OC)c3)c2c1 [Compound P-0267] |
|  | ≤ 10 | ≤ 10 | ≤ 10 |  | ≤ 10 |  | ≤ 10 | ≤ 10 | O=C(c1c(F)ccc(NS(=O)(=O)c2ccc(C(F)(F)F)cc2)c1F)c1c[nH]c2ncc(Cl)cc12 [Compound P-1541, N-[3-(5-Chloro-1H-pyrrolo[2,3-b]pyridine-3-carbonyl)-2,4-difluoro-phenyl]-4-trifluoromethyl-benzenesulfonamide] |
| ≤ 10 |  |  |  |  |  |  |  |  | Oc1ccccc1-c1c[nH]c2ncccc12 [Compound P-0182] |
| ≤ 10 |  |  |  |  |  |  | ≤ 10 |  | Clc1cccc(-c2ccnc3[nH]ccc23)c1 [Compound P-0427] |
| ≤ 10 |  | ≤ 10 | ≤ 10 |  |  | ≤ 10 |  |  | CC(C)CNc1ccc(Cc2c[nH]c3ncccc23)cn1 [Compound P-0192] |
| ≤ 10 |  |  |  |  |  |  |  |  | COc1ccc(C(O)c2c[nH]c3ncccc23)cc1 (stereo not shown) [Compound P-0268] |
| ≤ 10 |  | ≤ 10 |  |  |  |  |  |  | c1cc2cc(Nc3ccc(N4CCOCC4)cc3)cnc2[nH]1 [Compound P-0981] |
| ≤ 10 |  |  |  |  |  |  |  |  | Fc1ccc(NCc2c[nH]c3ncccc23)cc1 [Compound P-0144] |
| ≤ 10 |  |  |  |  |  |  |  |  | O=C(c1cccc(Cl)c1F)c1c[nH]c2ncc(Br)cc12 [Compound P-0299, (5-Bromo-1H-pyrrolo[2,3-b]pyridin-3-yl)-(3-chloro-2-fluoro-phenyl)-methanone] |
|  | ≤ 10 | ≤ 10 | ≤ 10 | ≤ 10 |  | ≤ 10 |  |  | CS(=O)(=O)Nc1ccc(Cl)c(C(=O)c2c[nH]c3ncc(-c4cccc(S(C)(=O)=O)c4)cc23)c1F [Compound P-0841, N-{4-Chloro-2-fluoro-3-[5-(3-methanesulfonyl-phenyl)-1H-pyrrolo[2,3-b]pyridine-3-carbonyl]-phenyl}-methanesulfonamide] |
| ≤ 10 |  |  |  |  |  |  |  |  | CC(C)Cc1nc(-c2ccnc3[nH]ccc23)no1 [Compound P-0288] |
| ≤ 10 |  |  |  | ≤ 10 |  |  | ≤ 10 |  | Cc1cc(C(=O)c2c[nH]c3ncc(-c4cccc(N)c4)cc23)no1 [Compound P-0796] |
|  | ≤ 10 | ≤ 10 | ≤ 10 |  | ≤ 10 | ≤ 10 | ≤ 10 | ≤ 10 | O=C(c1c(F)ccc(NS(=O)(=O)c2cccc(F)c2)c1F)c1c[nH]c2ncc(Cl)cc12 [Compound P-1583, N-[3-(5-Chloro-1H-pyrrolo[2,3-b]pyridine-3-carbonyl)-2,4-difluoro-phenyl]-3-fluoro-benzenesulfonamide] |
| ≤ 10 |  | ≤ 10 |  |  |  |  |  |  | O=C(c1cc([N+](=O)[O-])ccc1F)c1c[nH]c2ncccc12 [Compound P-0243] |
